According to US20240270741A1 (Cogent Biosciences, Inc., priority 2023, published 2024):

Target: FGFR2 (Homo sapiens, UniProt P21802)
Assay: FGFR wild type enzyme assay (HTRF KinEASE-TK), FGFR2
Details: Enz FGFR2 (nM), FGFR2 wild type enzyme

Sequence of FGFR2 (P21802 399-821 limits assumed): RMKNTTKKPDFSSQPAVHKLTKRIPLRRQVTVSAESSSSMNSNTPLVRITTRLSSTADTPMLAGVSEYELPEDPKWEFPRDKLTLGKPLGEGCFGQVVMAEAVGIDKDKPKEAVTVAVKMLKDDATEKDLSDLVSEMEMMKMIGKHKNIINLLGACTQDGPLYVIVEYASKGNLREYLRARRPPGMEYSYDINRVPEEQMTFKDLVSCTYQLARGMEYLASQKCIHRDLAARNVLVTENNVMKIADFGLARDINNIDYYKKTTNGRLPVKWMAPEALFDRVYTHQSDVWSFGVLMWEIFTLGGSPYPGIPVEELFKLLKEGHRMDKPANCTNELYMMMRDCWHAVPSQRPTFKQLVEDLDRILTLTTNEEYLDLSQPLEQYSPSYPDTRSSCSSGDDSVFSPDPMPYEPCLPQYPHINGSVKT

| IC50 [nM] | SMILES |
| --- | --- |
| 8 | N#Cc1cnn2cc(-c3cnn4c3CNCC4)cc(Sc3ncccc3F)c12 [Example 183, 4-((3-fluoropyridin-2-yl)thio)-6-(4,5,6,7-tetrahydropyrazolo[1,5-a]pyrazin-3-yl)pyrazolo[1,5-a]pyridine-3-carbonitrile] |
| 1.6 | Cc1c(-c2cc(Sc3ncccc3F)c3c(C#N)cnn3c2)cnn1[C@H]1CC[C@@H](O)CC1 [Example 184, 4-((3-fluoropyridin-2-yl)thio)-6-(1-((1s,4s)-4-hydroxycyclohexyl)-5-methyl-1H-pyrazol-4-yl)pyrazolo[1,5-a]pyridine-3-carbonitrile] |
| 1 | Cc1c(-c2cc(Sc3ncccc3F)c3c(C#N)cnn3c2)cnn1[C@H]1CC[C@H](O)CC1 [Example 185, 4-((3-fluoropyridin-2-yl)thio)-6-(1-((1r,4r)-4-hydroxycyclohexyl)-5-methyl-1H-pyrazol-4-yl)pyrazolo[1,5-a]pyridine-3-carbonitrile] |
| 3 | Cc1c(-c2cc(Sc3ncccc3F)c3c(C#N)cnn3c2)cnn1[C@H]1CC[C@@H](N)CC1 [Example 186, 6-(1-((1s,4s)-4-aminocyclohexyl)-5-methyl-1H-pyrazol-4-yl)-4-((3-fluoropyridin-2-yl)thio)pyrazolo[1,5-a]pyridine-3-carbonitrile] |
| 1 | Cc1c(-c2cc(Sc3ncccc3F)c3c(C#N)cnn3c2)cnn1[C@H]1CC[C@H](N)CC1 [Example 187, 6-(1-((1r,4r)-4-aminocyclohexyl)-5-methyl-1H-pyrazol-4-yl)-4-((3-fluoropyridin-2-yl)thio)pyrazolo[1,5-a]pyridine-3-carbonitrile] |
| 0.5 | Cc1c(-c2cc(Sc3ccccc3C#N)c3c(C#N)cnn3c2)cnn1[C@H]1CC[C@@H](O)CC1 [Example 188, 4-((2-cyanophenyl)thio)-6-(1-((1s,4s)-4-hydroxycyclohexyl)-5-methyl-1H-pyrazol-4-yl)pyrazolo[1,5-a]pyridine-3-carbonitrile] |
| 0.7 | Cc1c(-c2cc(Sc3ccccc3C#N)c3c(C#N)cnn3c2)cnn1[C@H]1CC[C@H](O)CC1 [Example 189, 4-((2-cyanophenyl)thio)-6-(1-((1r,4r)-4-hydroxycyclohexyl)-5-methyl-1H-pyrazol-4-yl)pyrazolo[1,5-a]pyridine-3-carbonitrile] |
| 3 | CC(=O)N1CCC[C@H](n2ncc(-c3cc(Sc4ncc(F)cc4F)c4c(C#N)cnn4c3)c2C)C1 [Example 190, (S)-6-(1-(1-acetylpiperidin-3-yl)-5-methyl-1H-pyrazol-4-yl)-4-((3,5-difluoropyridin-2-yl)thio)pyrazolo[1,5-a]pyridine-3-carbonitrile] |
| 4 | Cc1c(-c2cc(Sc3ncc(F)cc3F)c3c(C#N)cnn3c2)cnn1C1CCN(C(=O)CO)CC1 [Example 191, 4-((3,5-difluoropyridin-2-yl)thio)-6-(1-(1-(2-hydroxyacetyl)piperidin-4-yl)-5-methyl-1H-pyrazol-4-yl)pyrazolo[1,5-a]pyridine-3-carbonitrile] |
| 2 | N#Cc1cnn2cc(-c3cnn([C@@H]4CCCNC4)c3)cc(Sc3ncccc3F)c12 [Example 192, (R)-4-((3-fluoropyridin-2-yl)thio)-6-(1-(piperidin-3-yl)-1H-pyrazol-4-yl)pyrazolo[1,5-a]pyridine-3-carbonitrile] |
| 2 | Cc1c(-c2cc(Sc3ncccc3F)c3c(C#N)cnn3c2)cnn1C1CCN(C(=O)[C@@H](C)O)CC1 [Example 193, (R)-4-((3-fluoropyridin-2-yl)thio)-6-(1-(1-(2-hydroxypropanoyl)piperidin-4-yl)-5-methyl-1H-pyrazol-4-yl)pyrazolo[1,5-a]pyridine-3-carbonitrile] |
| 2 | Cc1c(-c2cc(Sc3ncccc3F)c3c(C#N)cnn3c2)cnn1C1CCN(C(=O)[C@H](C)O)CC1 [Example 194, (S)-4-((3-fluoropyridin-2-yl)thio)-6-(1-(1-(2-hydroxypropanoyl)piperidin-4-yl)-5-methyl-1H-pyrazol-4-yl)pyrazolo[1,5-a]pyridine-3-carbonitirle] |
| 1.4 | Cc1c(-c2cc(Sc3ncccc3F)c3c(C#N)cnn3c2)cnn1C1CCN(CC(=O)N(C)C)CC1 [Example 195, 2-(4-(4-(3-cyano-4-((3-fluoropyridin-2-yl)thio)pyrazolo[1,5-a]pyridin-6-yl)-5-methyl-1H-pyrazol-1-yl)piperidin-1-yl)-N,N-dimethylacetamide] |
| 1 | Cc1c(-c2cc(Sc3ncccc3F)c3c(C#N)cnn3c2)cnn1C1CCN(C(=O)[C@@H]2C[C@@H](F)CN2C)CC1 [Example 196, 6-(1-(1-((2S,4R)-4-fluoro-1-methylpyrrolidine-2-carbonyl)piperidin-4-yl)-5-methyl-1H-pyrazol-4-yl)-4-((3-fluoropyridin-2-yl)thio)pyrazolo[1,5-a]pyridine-3-carbonitrile] |
| 3 | Cc1c(-c2cc(Sc3ncccc3F)c3c(C#N)cnn3c2)cnn1[C@H](C)[C@H](O)CO [Example 197, 6-(1-((2R,3S)-3,4-dihydroxybutan-2-yl)-5-methyl-1H-pyrazol-4-yl)-4-((3-fluoropyridin-2-yl)thio)pyrazolo[1,5-a]pyridine-3-carbonitrile] |
| 21 | Cc1c(-c2cc(Sc3ncccc3F)c3c(C#N)cnn3c2)cnn1[C@@H](C)[C@H](O)CO [Example 198, 6-(1-((2S,3S)-3,4-dihydroxybutan-2-yl)-5-methyl-1H-pyrazol-4-yl)-4-((3-fluoropyridin-2-yl)thio)pyrazolo[1,5-a]pyridine-3-carbonitrile] |
| 1 | Cc1c(-c2cc(Sc3ccccc3C#N)c3c(C#N)cnn3c2)cnn1C1CC2CCC(C1)N2C (stereo not drawn) [Example 199, 4-((2-cyanophenyl)thio)-6-(5-methyl-1-(8-methyl-8-azabicyclo[3.2.1]octan-3-yl)-1H-pyrazol-4 yl)pyrazolo[1,5-a]pyridine-3-carbonitrile] |
| 1 | Cc1c(-c2cc(Sc3ccccc3C#N)c3c(C#N)cnn3c2)cnn1CC1CCNCC1 [Example 200, 4-((2-cyanophenyl)thio)-6-(5-methyl-1-(piperidin-4-ylmethyl)-1H-pyrazol-4-yl)pyrazolo[1,5-a]pyridine-3-carbonitrile] |
| 2 | Cc1c(-c2cc(Sc3ccccc3C#N)c3c(C#N)cnn3c2)cnn1C[C@H]1CCCNC1 [Example 201, (S)-4-((2-cyanophenyl)thio)-6-(5-methyl-1-(piperidin-3-ylmethyl)-1H-pyrazol-4-yl)pyrazolo[1,5-a]pyridine-3-carbonitrile] |
| 2 | CC(=O)N1CCC[C@H](Cn2ncc(-c3cc(Sc4ccccc4C#N)c4c(C#N)cnn4c3)c2C)C1 [Example 202, (S)-6-(1-((1-acetylpiperidin-3-yl)methyl)-5-methyl-1H-pyrazol-4-yl)-4-((2-cyanophenyl)thio)pyrazolo [1,5-a]pyridine-3-carbonitrile] |
| 2 | Cc1c(-c2cc(Sc3ncccc3F)c3c(C#N)cnn3c2)cnn1C1CC2CCC(C1)N2 (stereo not drawn) [Example 203, 4-[(3-fluoro-2-pyridiyl)sulfonyl]-6-[1-[1-(1-prop-2-enoylazetidine-3-carbonyl)-4-piperidyl]pyrazol-4-yl]pyrazolo[1,5-a]pyridine-3-carbonitrile] |
| 2 | CC(=O)N1C2CCC1CC(n1ncc(-c3cc(Sc4ncccc4F)c4c(C#N)cnn4c3)c1C)C2 (stereo not drawn) [Example 204, 6-(1-(8-acetyl-8-azabicyclo[3.2.1]octan-3-yl)-5-methyl-1H-pyrazol-4-yl)-4-((3-fluoropyridin-2-yl)thio)pyrazolo[1,5-a]pyridine-3-carbonitrile] |
| 3 | CC(=O)N1CCC(Cn2ncc(-c3cc(Sc4ncccc4F)c4c(C#N)cnn4c3)c2C)CC1 [Example 205, 6-(1-((1-acetylpiperidin-4-yl)methyl)-5-methyl-1H-pyrazol-4-yl)-4-((3-fluoropyridin-2-yl)thio)pyrazolo[1,5-a]pyridine-3-carbonitrile] |
| 3 | Cc1c(-c2cc(Sc3ncccc3F)c3c(C#N)cnn3c2)cnn1C[C@H]1CCCNC1 [Example 206, (S)-4-((3-fluoropyridin-2-yl)thio)-6-(5-methyl-1-(piperidin-3-ylmethyl)-1H-pyrazol-4-yl)pyrazolo[1,5-a]pyridine-3-carbonitrile] |
| 5 | CC(=O)N1CCC[C@H](Cn2ncc(-c3cc(Sc4ncccc4F)c4c(C#N)cnn4c3)c2C)C1 [Example 207, (S)-6-(1-((1-acetylpiperidin-3-yl)methyl)-5-methyl-1H-pyrazol-4-yl)-4-((3-fluoropyridin-2-yl)thio)pyrazolo[1,5-a]pyridine-3-carbonitrile] |
| 1 | CN[C@H]1C[C@@H](n2ncc(-c3cc(Sc4ncccc4F)c4c(C#N)cnn4c3)c2C)C1 [Example 208, 4-((3-fluoropyridin-2-yl)thio)-6-(5-methyl-1-((1s,3s)-3-(methylamino)cyclobutyl)-1H-pyrazol-4-yl)pyrazolo[1,5-a]pyridine-3-carbonitrile] |
| 1 | Cc1c(-c2cc(Sc3ncccc3F)c3c(C#N)cnn3c2)cnn1C1CC2(CNC2)C1 [Example 209, 4-((3-fluoropyridin-2-yl)thio)-6-(5-methyl-1-(2-azaspiro[3.3]heptan-6-yl)-1H-pyrazol-4-yl)pyrazolo[1,5-a]pyridine-3-carbonitrile] |
| 2 | CC(=O)N1CC2(CC(n3ncc(-c4cc(Sc5ncccc5F)c5c(C#N)cnn5c4)c3C)C2)C1 [Example 210, 6-(1-(2-acetyl-2-azaspiro[3.3]heptan-6-yl)-5-methyl-1H-pyrazol-4-yl)-4-((3-fluoropyridin-2-yl)thio)pyrazolo[1,5-a]pyridine-3-carbonitrile] |
| 1 | CNC1CC2(C1)CC(n1ncc(-c3cc(Sc4ncccc4F)c4c(C#N)cnn4c3)c1C)C2 (stereo not drawn) [Example 211, 4-((3-fluoropyridin-2-yl)thio)-6-(5-methyl-1-(6-(methylamino)spiro[3.3]hep-tan-2-yl)-1H-pyrazol-4-yl)pyrazolo[1,5-a]pyridine-3-carbonitrile] |
| 3 | Cc1c(-c2cc(Sc3ncccc3F)c3c(C#N)cnn3c2)cnn1C[C@H]1CC[C@@H](O)CC1 [Example 212, 4-((3-fluoropyridin-2-yl)thio)-6-(1-(((1s,4s)-4-hydroxycyclohexyl)methyl)-5-methyl-1H-pyrazol-4-yl)pyrazolo[1,5-a]pyridine-3-carbonitrile] |
